In patent publication US9840500B2, “Compounds as dual inhibitors of histone methyltransferases and DNA methyltransferases” (FUNDACIÓN PARA LA INVESTIGACIÓN MÉDICA APLICADA, priority 2014, dated 2017):

System: human B-ALL mice model with CEMO-1 cell line
Assay: In vivo therapeutic activity in the preclinical human B-ALL mice model with CEMO-1 cell line
Parameters: species or system BALB/cA-Rag2−/−γc−/− mice
Description: To examine the in vivo activity, a preclinical model of human B-ALL with RAG2 mouse was used. Six to eight-week old female BALB/cA-Rag2^−/−γc^−/− mice were purchased from The Netherlands Cancer Institute and maintained in pathogen-free isolation cages. RAG2 mice were injected intravenously (i.v.) with 10×10^6 CEMO-1 cells via tail vein to generate the human B-ALL mice model. Animals in groups of six were treated starting at day three after cells inoculation. The first group served as control and received placebo (saline) daily for 28 consecutive days, via i.v. injection.
The second group was treated with 3-04 (2.5 mg/kg) daily for 28 consecutive days via i.v. Animals were monitored weekly for weight loss and signs of tumour burden by flow cytometry of human cells. The median survival for 3-04 treated mice (N=6) was 91 days (SD: ±5.72) compared to 57 days (SD: ±10.52) for control mice (N=6) after cells inoculation.

COc1cc2c(NC3CCN(C)CC3)cc(-c3ccc(C)o3)nc2cc1OCCCN1CCCC1.O=C(O)C(F)(F)F [Compound 3-04, 6-methoxy-2-(5-methyl-2-furyl)-N-(1-methyl-4-piperidyl)-7-(3-pyrrolidin-1-ylpropoxy)quinolin-4-amine; 2,2,2-trifluoroacetic acid]
median survival (2.5 mg/kg daily for 28 consecutive days i.v., after cells inoculation, control 57 days): 91 days
survival compared with the control (Kaplan-Meier, log-rank test) (2.5 mg/kg daily for 28 days i.v., P=0.0009): significantly prolonged survival
